Source: patent US5739273A, “Transmembrane polypeptide and methods of use” (Yale University, priority 1994, dated 1998)
Residues, ends and D or L forms follow the SMILES beside them.

Test: circular dichroism titration in the presence of small unilamellar phospholipid vesicles
Assay type: physicochemical
Settings: circular dichroism at 222 nanometers vs pH, DMPC small unilamellar vesicles
Source text: FIG. 5A is a graph showing the circular dichroism analysis of the synthetic polypeptide of FIG. 1 in the presence of dimyristoyl phosphatidylcholine (DMPC) vesicles at various pH values. The black squares indicate the initial titration (down). The open circles indicate the reverse titration (up). The open triangles indicate the second titration (down).
The well-known spectroscopic technique of polarized infrared linear dichroism is used to determine the orientation of the alpha-helical domain of the polypeptide. The orientation of the polypeptide in protein/phospholipid multilayers is inferred from the dichroism of two amide vibrations.
FIG. 5A is a graph showing circular dichroism titration of the synthetic polypeptide having the amino acid sequence set forth in FIG. 1 and sequence listing identification number 1, in the presence of a solution containing small unilamellar phospholipid vesicles made from synthetic dimyristoyl phosphatidylcholine. The y axis is millidegrees at 222 nanometers, and the x axis is pH. […] FIG. 5B is a corresponding control graph showing circular dichroism titration of the polypeptide in the […] of lipid molecules.

CC[C@H](C)[C@H](NC(=O)[C@@H]1CCCN1C(=O)[C@H](CC(N)=O)NC(=O)[C@H](CCC(N)=O)NC(=O)[C@H](CCC(=O)O)NC(=O)CNC(=O)CN)C(=O)N[C@@H](Cc1ccc(O)cc1)C(=O)N[C@@H](Cc1c[nH]c2ccccc12)C(=O)N[C@@H](C)C(=O)N[C@@H](CCCNC(=N)N)C(=O)N[C@@H](Cc1ccc(O)cc1)C(=O)N[C@@H](C)C(=O)N[C@@H](CC(=O)O)C(=O)N[C@@H](Cc1c[nH]c2ccccc12)C(=O)N[C@@H](CC(C)C)C(=O)N[C@@H](Cc1ccccc1)C(=O)N[C@H](C(=O)N[C@H](C(=O)N1CCC[C@H]1C(=O)N[C@@H](CC(C)C)C(=O)N[C@@H](CC(C)C)C(=O)N[C@@H](CC(C)C)C(=O)N[C@@H](CC(C)C)C(=O)N[C@@H](CC(=O)O)C(=O)N[C@@H](CC(C)C)C(=O)N[C@@H](C)C(=O)N[C@@H](CC(C)C)C(=O)N[C@@H](CC(C)C)C(=O)N[C@H](C(=O)N[C@@H](CC(=O)O)C(=O)N[C@@H](C)C(=O)N[C@@H](CC(=O)O)C(=O)N[C@@H](CCC(=O)O)C(=O)NCC(=O)N[C@H](C(=O)O)[C@@H](C)O)C(C)C)[C@@H](C)O)[C@@H](C)O [synthetic polypeptide] (H-GGEQNPIYWARYADWLFTTPLLLLDLALLVDADEGT-OH)
pKa of formation of a polypeptide alpha-helix: 6.0
